Several values for one entry are separate records, joined by “and”; a condition that tells them apart may be missing. Equal entries are not always repeated.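 Each compound was tested at five concentrations against cells in 96-well plates for 48 hours. The concentration for 50% growth inhibition is given as GI50. TGI denotes the concentration required for complete inhibition of growth.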
Test system: SK-MEL-5 melanoma
Assay: DTP human tumour cell line panel, 48 h

| SMILES | GI50 | TGI |
| --- | --- | --- |
| COc1ccc(C(C)=O)cc1N1C(=O)C2C(C1=O)C1(c3ccccc3)C(=O)C2(c2ccccc2)C(c2ccc(C)cc2)=C1c1ccc(C)cc1 (stereo unspecified) | > 100 µM | > 100 µM |
| O=C1c2cccc(NCCCNCCO)c2C(=O)c2cccc(NCCCNCCO)c21 | – | 3.31 µM and 4.4 µM |
| NC(=Nc1c([N+](=O)[O-])cnc2ccccc12)N1CCOCC1 | – | > 100 µM |
| CCN(CC)c1ccc2c(c1)OC(N)=C(C#N)C2c1cc(OC)c2c(c1)OCO2 (stereo unspecified) | 0.0287 µM | 0.597 µM |
| N#CC(=C1C=CC(=NO)C=C1)c1ccccc1 | 2.01 µM | 8.3 µM |
| CC(C)=CCNc1ncnc2c1ncn2C1OC(CO)C(O)C1O (stereo unspecified) | 5.74 µM | > 1000 µM |
| CCC(C)n1ncn(-c2ccc(N3CCN(c4ccc(OCC5COC(Cn6cncn6)(c6ccc(Cl)cc6Cl)O5)cc4)CC3)cc2)c1=O (stereo unspecified) | 2.75 µM | > 100 µM |
| CC(C)CCN1c2nc(Nc3cc(F)c(O)c(F)c3)ncc2N(C)C(=O)C1C (stereo unspecified) | 2.65 µM | 14 µM |
| O=C(CNc1ccc(Cl)cc1)Nc1ccc(-c2nc3ccccc3s2)cc1 | 2 µM | 5.42 µM |
| CCCCCCCCCCCCOC1C(C(COC2OC(C3COC(C)(C)O3)C3OC(C)(C)OC23)NC(=O)Nc2ccc(C(=O)O)cc2)OC2OC(C)(C)OC21 (stereo unspecified) | 1.75 µM | 3.4 µM |
| CCN(CC)CCC(CNc1ccnc2cc(Cl)ccc12)c1ccc(OC)cc1 (stereo unspecified) | 1.64 µM | 3.09 µM |
| COc1ccc(/C=C(/C(=O)N2CCN(c3ccccc3)CC2)c2cc(OC)c(OC)c(OC)c2)cc1O | 0.361 µM | 11.8 µM |

Test system: K-562 leukemia
Assay: DTP human tumour cell line panel, 48 h

| SMILES | TGI | GI50 |
| --- | --- | --- |
| COc1cc(C#CC(=O)OC/C=C/c2ccc3c(c2)OCO3)cc(OC)c1OC | 58.1 µM | – |
| O/N=C/C1C(OCc2ccccc2)C(OCc2ccccc2)C(OCc2ccccc2)CN1Cc1ccccc1 (stereo unspecified) | 36.6 µM and > 100 µM | – |
| O=C1NC(=O)C(c2cnc3ccccn23)=C1c1cn2c3c(cc(F)cc13)CN(C(=O)N1CCCCC1)CC2 | > 100 µM | 3.39 µM |
| Clc1nc2ccccc2nc1CI | > 32.5 µM | 1.74 µM |
| Cn1nc(N)c2cc([C@@H]3Nc4ccc5[nH]ncc5c4[C@H]4C5CCC(C5)[C@@H]34)ccc21 (stereo partly specified) | > 100 µM | 0.324 µM |
| O=C(O)C1C2C=CC(O2)C1C(=O)NCc1ccccn1 (stereo unspecified) | > 100 µM | – |
| O=C(OC(CNc1cc(=O)n(Cc2ccccc2)c(=O)n1Cc1ccccc1)CN1CCCC1)c1ccccc1 (stereo unspecified) | > 100 µM | 92.1 µM |
| CCN(CC)CCCC(CNc1ccnc2cc(Cl)ccc12)c1ccc(Cl)cc1 (stereo unspecified) | 0.994 µM and 0.603 µM | 0.289 µM and 0.227 µM |
| CCOC(=O)CCCn1c(SC)nc2[nH]cc(-c3ccccc3)c2c1=O | 56.9 µM | 12.7 µM |
| [Cl][Hg][c]1cc(Br)cc(Br)c1 | 3.81 µM | 1.12 µM |
| CCN(CC)CCOc1ccc(-c2nc3cc(Cl)ccc3s2)cc1 | > 100 µM | 1.26 µM |
| C=C1C(=O)O[C@@H]2C[C@@H]1CC/C(C)=C/CC/C(C)=C/CC[C@@]2(C)O | 17.3 µM | 4.7 µM |
| CNC(=O)N(C)N=NCCCl | > 100 µM | – |
| CCN1CCN(C(c2ccc(C(F)(F)F)cc2)c2ccc3cccnc3c2O)CC1 (stereo unspecified) | 14.6 µM | 3.49 µM |
| COc1ccc(C(C)=O)cc1N1C(=O)C2C(C1=O)C1(c3ccccc3)C(=O)C2(c2ccccc2)C(c2ccc(C)cc2)=C1c1ccc(C)cc1 (stereo unspecified) | > 100 µM | > 100 µM |
| O=C1c2cccc(NCCCNCCO)c2C(=O)c2cccc(NCCCNCCO)c21 | 18.8 µM and 8.27 µM | 3.69 µM and 1.05 µM |
| NC(=Nc1c([N+](=O)[O-])cnc2ccccc12)N1CCOCC1 | > 100 µM | – |
| CCN(CC)c1ccc2c(c1)OC(N)=C(C#N)C2c1cc(OC)c2c(c1)OCO2 (stereo unspecified) | 4.32 µM | < 0.0175 µM |
| N#CC(=C1C=CC(=NO)C=C1)c1ccccc1 | 13.2 µM | 1.85 µM |
| CC(C)=CCNc1ncnc2c1ncn2C1OC(CO)C(O)C1O (stereo unspecified) | > 380 µM | 0.703 µM |
| CCC(C)n1ncn(-c2ccc(N3CCN(c4ccc(OCC5COC(Cn6cncn6)(c6ccc(Cl)cc6Cl)O5)cc4)CC3)cc2)c1=O (stereo unspecified) | > 100 µM | 9.76 µM |
| CC(C)CCN1c2nc(Nc3cc(F)c(O)c(F)c3)ncc2N(C)C(=O)C1C (stereo unspecified) | > 33.3 µM | 2.63 µM |
| O=C(CNc1ccc(Cl)cc1)Nc1ccc(-c2nc3ccccc3s2)cc1 | > 100 µM | 1.95 µM |
| CCCCCCCCCCCCOC1C(C(COC2OC(C3COC(C)(C)O3)C3OC(C)(C)OC23)NC(=O)Nc2ccc(C(=O)O)cc2)OC2OC(C)(C)OC21 (stereo unspecified) | > 100 µM | 3.79 µM |
| CCN(CC)CCC(CNc1ccnc2cc(Cl)ccc12)c1ccc(OC)cc1 (stereo unspecified) | 5.76 µM and 4.14 µM | 1.79 µM and 1.19 µM |
| COc1ccc(/C=C(/C(=O)N2CCN(c3ccccc3)CC2)c2cc(OC)c(OC)c(OC)c2)cc1O | > 100 µM | 0.296 µM |

Test system: MDA-MB-435
Assay: DTP human tumour cell line panel, 48 h

| SMILES | TGI | GI50 |
| --- | --- | --- |
| COc1cc(C#CC(=O)OC/C=C/c2ccc3c(c2)OCO3)cc(OC)c1OC | 38.1 µM | – |
| O/N=C/C1C(OCc2ccccc2)C(OCc2ccccc2)C(OCc2ccccc2)CN1Cc1ccccc1 (stereo unspecified) | 33.6 µM and 27.1 µM | 14.1 µM and 3.14 µM |
| O=C1NC(=O)C(c2cnc3ccccn23)=C1c1cn2c3c(cc(F)cc13)CN(C(=O)N1CCCCC1)CC2 | 40.3 µM | 14.6 µM |
| Clc1nc2ccccc2nc1CI | 6.61 µM | 2.35 µM |
| Cn1nc(N)c2cc([C@@H]3Nc4ccc5[nH]ncc5c4[C@H]4C5CCC(C5)[C@@H]34)ccc21 (stereo partly specified) | 0.437 µM | 0.166 µM |
| O=C(O)C1C2C=CC(O2)C1C(=O)NCc1ccccn1 (stereo unspecified) | > 100 µM | – |
| O=C(OC(CNc1cc(=O)n(Cc2ccccc2)c(=O)n1Cc1ccccc1)CN1CCCC1)c1ccccc1 (stereo unspecified) | > 100 µM | > 100 µM |
| CCN(CC)CCCC(CNc1ccnc2cc(Cl)ccc12)c1ccc(Cl)cc1 (stereo unspecified) | 2.55 µM and 0.462 µM | 1.19 µM and 0.204 µM |
| CCOC(=O)CCCn1c(SC)nc2[nH]cc(-c3ccccc3)c2c1=O | 42.4 µM | 19.4 µM |
| [Cl][Hg][c]1cc(Br)cc(Br)c1 | 3.82 µM | 1.8 µM |
| CCN(CC)CCOc1ccc(-c2nc3cc(Cl)ccc3s2)cc1 | 3.18 µM | 1.65 µM |
| C=C1C(=O)O[C@@H]2C[C@@H]1CC/C(C)=C/CC/C(C)=C/CC[C@@]2(C)O | 18.5 µM | 5.07 µM |
| CNC(=O)N(C)N=NCCCl | > 100 µM | – |
| CCN1CCN(C(c2ccc(C(F)(F)F)cc2)c2ccc3cccnc3c2O)CC1 (stereo unspecified) | 17.8 µM | 3.76 µM |
| COc1ccc(C(C)=O)cc1N1C(=O)C2C(C1=O)C1(c3ccccc3)C(=O)C2(c2ccccc2)C(c2ccc(C)cc2)=C1c1ccc(C)cc1 (stereo unspecified) | > 100 µM | > 100 µM |
| O=C1c2cccc(NCCCNCCO)c2C(=O)c2cccc(NCCCNCCO)c21 | 3.06 µM | – |
| NC(=Nc1c([N+](=O)[O-])cnc2ccccc12)N1CCOCC1 | > 100 µM | – |
| CCN(CC)c1ccc2c(c1)OC(N)=C(C#N)C2c1cc(OC)c2c(c1)OCO2 (stereo unspecified) | 0.0276 µM | < 0.0108 µM |
| N#CC(=C1C=CC(=NO)C=C1)c1ccccc1 | 1.65 µM | 0.331 µM |
| CC(C)=CCNc1ncnc2c1ncn2C1OC(CO)C(O)C1O (stereo unspecified) | > 1000 µM | 3.26 µM |
| CCC(C)n1ncn(-c2ccc(N3CCN(c4ccc(OCC5COC(Cn6cncn6)(c6ccc(Cl)cc6Cl)O5)cc4)CC3)cc2)c1=O (stereo unspecified) | > 100 µM | > 100 µM |
| CC(C)CCN1c2nc(Nc3cc(F)c(O)c(F)c3)ncc2N(C)C(=O)C1C (stereo unspecified) | 55.8 µM | 1.29 µM |
| O=C(CNc1ccc(Cl)cc1)Nc1ccc(-c2nc3ccccc3s2)cc1 | 16.6 µM | 3.91 µM |
| CCCCCCCCCCCCOC1C(C(COC2OC(C3COC(C)(C)O3)C3OC(C)(C)OC23)NC(=O)Nc2ccc(C(=O)O)cc2)OC2OC(C)(C)OC21 (stereo unspecified) | 7.91 µM | 2.63 µM |
| CCN(CC)CCC(CNc1ccnc2cc(Cl)ccc12)c1ccc(OC)cc1 (stereo unspecified) | 4.12 µM and 3.71 µM | 1.91 µM and 1.65 µM |
| COc1ccc(/C=C(/C(=O)N2CCN(c3ccccc3)CC2)c2cc(OC)c(OC)c(OC)c2)cc1O | 0.514 µM | 0.15 µM |

From PubChem BioAssay (NCI)
